Key:
[1] = tested on: naturally aged C57BL6J mice; format: in vivo, mouse; details: mouse, in vivo
[2] = tested on: bleomycin-induced pulmonary fibrosis mice; assay: Bleomycin-induced pulmonary fibrosis mice, Example 31, Table 56; format: in vivo, mouse; details: untreated = 100%
Description: (§1) The control group was administered only the solution in the same volume. After the end of drug administration, the method described in each example below was performed. Liver, kidney, skin, knee joint, heart, and femur tissues were collected from mice in which natural aging was induced in the same manner as in Examples 7-2 and 7-6 of WO2023-085787 A1. Lung tissues were collected from mice in which pulmonary fibrosis was induced using the same method as in Example 24-1. Liver tissues were collected from mice in which hepatic fibrosis was induced using the same method as in Example 26, and total RNA was extracted. qRT-PCR was performed and analyzed using the synthesized cDNA. […] The mRNA amounts of p16, MMP3, and IL6 after natural aging was induced were calculated as 100% and compared with the mRNA amounts of p16, MMP3, and IL6 after treatment with the test compound. In addition, an open field test for the analysis of aging-related frailty, agtr1a mRNA analysis for kidney damage and disease evaluation, col1a1 and SDF1 mRNA analysis for skin aging evaluation such as wrinkles/loss of elasticity/hyperpigmentation, col2a1 mRNA analysis for evaluating joint aging such as osteoarthritis, sur2a mRNA analysis for evaluating cardiac aging such as decreased cardiac load resistance, ctsk mRNA analysis for evaluating bone diseases due to aging such as osteoporosis, muscle tissue weight for analyzing sarcopenia, fat tissue weight for analyzing lipoatrophy, and cataract incidence analysis were performed in mice. For cataract incidence analysis, the drug was administered twice a week under the conditions specified above, and biweekly examinations were conducted until death.
The table below quantitatively presents the evaluation results for each item in mice with bleomycin-induced pulmonary fibrosis, untreated and treated with the test compound.

[3] = tested on: carbon tetrachloride-induced liver fibrosis mice; assay: Carbon tetrachloride-induced liver fibrosis mice, Example 31, Table 57; format: in vivo, mouse; details: CCl4-induced liver fibrosis mice, untreated = 100%
Description: as §1

[4] = tested on: senescent A549 cells; assay: Viability of senescent A549 cells (CellTiter-Glo), Example 18, Table 15; details: Homo sapiens, A549, read-out: Survival (%)
Description: Senescence-induced cancer cells treated with doxorubicin were treated with the test compound at designated concentrations, and cell viability was measured using the CellTiter-Glo Luminescent Cell Viability Assay (Promega).

[5] = tested on: naturally aged mice; assay: Anti-aging evaluation in naturally aged mice, Example 31, Table 55; format: in vivo, mouse;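 also: Vehicle-dosed control mice received solution alone at matching volume, values compare test-compound-treated aged mice against that control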
[6] = tested on: senescent cells; assay: Viability of senescent cells (CellTiter-Glo), Example 17, Table 13; details: Homo sapiens, read-out: Survival (%)
Description: Cells induced to undergo senescence by doxorubicin treatment were treated with test compound at designated concentrations and measured using the CellTiter-Glo Luminescent Cell Viability Assay (Promega).

COC(=O)[C@]12CCC(C)(C)C[C@H]1[C@H]1C(=O)C[C@@H]3[C@@]4(C)C=C(C#N)C(=O)C(C)(C)[C@@H]4CC[C@@]3(C)[C@]1(C)CC2 [LX-2301]
wound/damage healing improvement [1]: damage treatment and recovery

CC1(C)CC[C@]2(C(=O)NCC(F)(F)F)CC[C@]3(C)[C@H](C(=O)C[C@@H]4[C@@]5(C)C=C(C#N)C(=O)C(C)(C)[C@@H]5CC[C@]43C)[C@@H]2C1 [LX-2302, Dihydro-CDDO-Trifluoroethyl Amide]
wound/damage healing improvement [1]: damage treatment and recovery

CC1(C)CC[C@]2(NS(C)(=O)=O)CC[C@]3(C)[C@H](C(=O)C[C@@H]4[C@@]5(C)C=C(C#N)C(=O)C(C)(C)[C@@H]5CC[C@]43C)[C@@H]2C1 [LX-2306]
wound/damage healing improvement [1]: damage treatment and recovery

COC(=O)C[C@]12CCC(C)(C)C[C@H]1[C@H]1C(=O)C[C@@H]3[C@@]4(C)C=C(C#N)C(=O)C(C)(C)[C@@H]4CC[C@@]3(C)[C@]1(C)CC2 [LX-2307]
wound/damage healing improvement [1]: damage treatment and recovery

C[C@]12C=C(C#N)C(=O)C3(CC=CC3)C1=CC[C@@H]1[C@@H]2CC[C@]2(C)C(=O)CC[C@@H]12 [LX-2308]
wound/damage healing improvement [1]: damage treatment and recovery

CC1(C)CC[C@]2(C(=O)NO)CC[C@]3(C)[C@H](C(=O)C[C@@H]4[C@@]5(C)C=C(C#N)C(=O)C(C)(C)[C@@H]5CC[C@]43C)[C@@H]2C1 [LX-2309]
wound/damage healing improvement [1]: damage treatment and recovery

CONC(=O)[C@]12CCC(C)(C)C[C@H]1[C@H]1C(=O)C=C3[C@@]4(C)C=C(C#N)C(=O)C(C)(C)[C@@H]4CC[C@@]3(C)[C@]1(C)CC2 [LX-2310]
wound/damage healing improvement [1]: damage treatment and recovery

C=C(C)[C@@H]1CC[C@]2(C(=O)NCC)CC[C@]3(C)[C@H](CCC4[C@@]5(C)C=C(C#N)C(=O)C(C)(C)[C@@H]5CC[C@]43C)[C@@H]12 (stereo partly shown) [LX-2311]
wound/damage healing improvement [1]: damage treatment and recovery

C[C@@H]1C(=O)C(C#N)=C[C@]2(C)c3nn(C)c(-c4ccccc4)c3CC[C@@H]12 [LX-2312]
wound/damage healing improvement [1]: damage treatment and recovery

COc1nc(-c2cccnc2)nc2c1CC[C@H]1[C@H](C)C(=O)C(C#N)=C[C@]21C [LX-2315]
wound/damage healing improvement [1]: damage treatment and recovery

COC(=O)[C@]12CCC(C)(C)C[C@H]1[C@H]1C(=O)C=C3[C@@]4(C)C=C(C#N)C(=O)[C@@H](C)[C@@H]4CC[C@@]3(C)[C@]1(C)CC2 [LX-2316]
wound/damage healing improvement [1]: damage treatment and recovery

C[C@@H]1C(=O)C(C#N)=C[C@]2(C)C3=CC(=O)[C@@H]4[C@@H]5CC(C)(C)CC[C@]5(CO)CC[C@@]4(C)[C@]3(C)CC[C@@H]12 [LX-2317]
wound/damage healing improvement [1]: damage treatment and recovery

CC1(C)CC[C@]2(CO)CC[C@]3(C)[C@H](C(=O)C=C4[C@@]5(C)[C@H]6O[C@@]6(C#N)C(=O)C(C)(C)[C@@H]5CC[C@]43C)[C@@H]2C1 [LX-2318]
wound/damage healing improvement [1]: damage treatment and recovery

C[C@@H]1C(=O)[C@]2(C#N)O[C@@H]2[C@]2(C)C3=CC(=O)[C@@H]4[C@@H]5CC(C)(C)CC[C@]5(NC(=O)C(C)(F)F)CC[C@@]4(C)[C@]3(C)CC[C@@H]12 [LX-2319]
wound/damage healing improvement [1]: damage treatment and recovery

Cc1noc([C@]23CCC(C)(C)C[C@H]2[C@H]2C(=O)C=C4[C@@]5(C)C=C(C#N)C(=O)C(C)(C)[C@@H]5CC[C@@]4(C)[C@]2(C)CC3)n1 [LX-2401]
wound/damage healing improvement [1]: damage treatment and recovery

CCNC(=O)CC[C@]12CCC(C)(C)C[C@H]1[C@H]1C(=O)C=C3[C@@]4(C)C=C(C#N)C(=O)C(C)(C)[C@@H]4CC[C@@]3(C)[C@]1(C)CC2 [LX-2402]
wound/damage healing improvement [1]: damage treatment and recovery

CNC(=O)CC[C@]12CCC(C)(C)C[C@H]1[C@H]1C(=O)C=C3[C@@]4(C)C=C(C#N)C(=O)C(C)(C)[C@@H]4CC[C@@]3(C)[C@]1(C)CC2 [LX-2403]
wound/damage healing improvement [1]: damage treatment and recovery

CC1(C)CC[C@]2(CO)CC[C@@]3(C)[C@]4(C)CC[C@H]5C(C)(C)C(=O)C(C#N)=C[C@]5(C)C4=CC(=O)[C@]3(O)C2C1 (stereo partly shown) [LX-2405]
wound/damage healing improvement [1]: damage treatment and recovery

CC1(C)CC[C@]2(C(N)=O)CC[C@@]3(C)[C@]4(C)CC[C@H]5C(C)(C)C(=O)C(C#N)=C[C@]5(C)C4=CC(=O)[C@]3(O)[C@@H]2C1 [LX-2406]
wound/damage healing improvement [1]: damage treatment and recovery

C[C@@H]1C(=O)C(C#N)=C[C@]2(c3ccccc3)c3c(c(-c4cccnc4)nn3C)CC[C@@H]12 [LX-2407, (5aS,6S,9aR)-1,6-dimethyl-7-oxo-9a-phenyl-3-(pyridin-3-yl)-4,5,5a,6,7,9a-hexahydro-1H-benzo[g]indazole-8-carbonitrile]
wound/damage healing improvement [1]: damage treatment and recovery

C[C@@H]1C(=O)C(C#N)=C[C@]2(c3ccccc3)c3c(c(-c4cncnc4)nn3C)CC[C@@H]12 [LX-2408]
wound/damage healing improvement [1]: damage treatment and recovery

C[C@@H]1C(=O)C(C#N)=C[C@]2(C)c3nc(CCO)n(-c4ccccc4)c3CC[C@@H]12 [LX-2409]
wound/damage healing improvement [1]: damage treatment and recovery

CC(O)[C@]1(C)C(=O)C(C#N)=C[C@]2(C)C3=CC(=O)[C@]45OC(=O)[C@@]6(CCC(C)(C)C[C@H]64)CC[C@@]5(C)[C@]3(C)CC[C@@H]12 (stereo partly shown) [LX-2501]
wound/damage healing improvement [1]: damage treatment and recovery

CCC[C@H]1C(=O)C(C#N)=C[C@@]2(C)c3nc(-c4cccc5ccccc45)nc(-c4ccccc4F)c3CC[C@H]12 [LX-2502]
wound/damage healing improvement [1]: damage treatment and recovery

CCC[C@H]1C(=O)C(C#N)=C[C@@]2(C)c3nc(-c4cccc5ncccc45)nc(-c4ccccc4F)c3CC[C@H]12 [LX-2503]
wound/damage healing improvement [1]: damage treatment and recovery

C[C@H]1C(=O)C(C#N)=C[C@@]2(C)c3c(c(-c4ccccc4)nn3-c3ccc(-c4cccc(CO)c4)cc3)CC[C@H]12 [LX-2505]
wound/damage healing improvement [1]: damage treatment and recovery

Cc1cc(-c2ccc(-n3nc(-c4ccccc4F)c4c3[C@]3(C)C=C(C#N)C(=O)[C@H](C)[C@H]3CC4)cc2)cnn1 [LX-2506]
wound/damage healing improvement [1]: damage treatment and recovery

C[C@@H]1C(=O)C(C#N)=C[C@]2(C)C3=CC(=O)[C@@H]4[C@@H]5CC(C)(C)CC[C@]5(c5nnc(CF)o5)CC[C@@]4(C)[C@]3(C)CC[C@@H]12 [LX-2507]
wound/damage healing improvement [1]: damage treatment and recovery

CC1(C)CC[C@]2(c3nc(CO)no3)CC[C@]3(C)[C@H](C(=O)C=C4[C@@]5(C)C=C(C#N)C(=O)C(C)(C)[C@@H]5CC[C@]43C)[C@@H]2C1 [LX-2508]
wound/damage healing improvement [1]: damage treatment and recovery

C=CC(=O)NC[C@]12CCC(C)(C)C[C@H]1[C@H]1C(=O)C=C3[C@@]4(C)C=C(C#N)C(=O)C(C)(C)[C@@H]4CC[C@@]3(C)[C@]1(C)CC2 [LX-2509]
wound/damage healing improvement [1]: damage treatment and recovery

CCC(=O)NC[C@]12CCC(C)(C)C[C@H]1[C@H]1C(=O)C=C3[C@@]4(C)C=C(C#N)C(=O)C(C)(C)[C@@H]4CC[C@@]3(C)[C@]1(C)CC2 [LX-2510]
wound/damage healing improvement [1]: damage treatment and recovery

C[C@@H]1[C@H]2[C@H]3C(=O)C=C4[C@@]5(C)C=C(C#N)C(=O)C(C)(C)[C@@H]5CC[C@@]4(C)[C@]3(C)CC[C@@]2(c2nc(CCO)no2)CC[C@H]1C [LX-2511]
wound/damage healing improvement [1]: damage treatment and recovery

Nc1ccc(/C=C/C(=O)NCc2cc3cc(-c4ccc(C(=O)N5CCC(F)(F)CC5)cc4)cc(-c4ccc(F)cc4)c3o2)cn1 [LX-8812, Padnarsertib]
Lung p16 mRNA ([2]; lung): 67 (±5.6) % | Col1a1 mRNA [2]: 77 (±6.2) % | Liver p16 mRNA ([3]; liver): 63 (±3.9) % | Col1a1 mRNA [3]: 64 (±3.1) % | viability at 1.1 µM [4]: 100% | viability at 10 µM [4]: 61.6% | viability at 30 µM [4]: 24.9% | Femur Ctsk mRNA ([5]; femur, untreated = 100%): 62% | Heart Sur2a mRNA ([5]; heart, untreated = 1.0): 2.0 fold | Joint Col2a1 mRNA ([5]; joint, untreated = 1.0): 2.6 fold | Kidney Agtr1a mRNA ([5]; kidney, untreated = 100%): 51% | Liver IL6 mRNA ([5]; liver, untreated = 100%): 53% | Liver MMP3 mRNA ([5]; liver, untreated = 100%): 42% | Liver p16 mRNA ([5]; liver, untreated = 100%): 59% | Open Field Test Time in Center ([5]; open field test, untreated = 100%): 188% | Skin Col1a1 mRNA ([5]; skin, untreated = 1.0): 3.4 Fold | Skin SDF1 mRNA ([5]; skin, untreated = 1.0): 2.9 fold | Muscle Mass ([5]; untreated 0.64 g): 0.70 g | Fat Mass ([5]; untreated 0.82 g): 0.96 g | Cataract incidence ([5]; untreated 83%): 54% | viability at 1.1 µM [6]: 94.6% | viability at 10 µM [6]: 49.3% | viability at 30 µM [6]: 29.2%
